Data set [1] is described as follows: Aqueous solubility of compound in pH 7.4 PBS buffer measured after 24 hrs by LC-MS/MS analysis. It counts as physicochemical.
The nature of data set [2]: Lipophilicity, logD of the compound in octanol and phosphate buffer at pH 7.4 incubated for 2 hrs under shaking condition by LC-MS/MS analysis. It counts as physicochemical.
A short description of data set [3]: Metabolic stability in human liver microsomes assessed as half life at 1 uM measured up to 60 mins in presence of NADPH by LC-MS/MS analysis. The conditions noted are these: for half-life at 1 µM: liver microsomes. It counts as ADME, Microsome. In general terms: Liver microsomes are vesicles of endoplasmic reticulum, rich in cytochrome P450 enzymes.
The nature of data set [4]: Metabolic stability in human liver S9 fraction assessed as half life at 1 uM measured after 2 hrs in presence of NADPH by LC-MS/MS analysis. It is filed as ADME, subcellular.

The solubility is how much of the substance goes into solution per volume. Higher therefore signals much dissolved substance. One may read the logD as the decadic logarithm of the distribution of all forms, ionised or not, between an organic phase and buffer at a given pH. Read a high logD as a more lipophilic compound. As a reminder, the half-life is the time needed for the level to fall by half in the phase considered.

≈ marks a conversion by molar mass, not a printed value.

For the compound `O=C(O)c1cccc(OCc2ccc3ccccc3n2)c1`, the solubility at 24 h in data set [1] is more than 200 µM. This compound yielded a logD at 2 h in data set [2] of 0.12.
With `CCCCCC(O)c1cccc(OCc2ccc3ccccc3n2)c1` (stereo not drawn) [REV-5901], the t1/2 in data set [3] (microsomes, 1 h, 1 µM) was determined as 37 h. In data set [1], this compound yielded a solubility at 24 h of 39.3 µM (≈ 13.2 µg/mL). Moreover, the logD at 2 h in data set [2] turned out to be 3.1. The half-life at 1 µM in data set [4] came out at 57 min.
Turning to `OCc1cccc(OCc2ccc3ccccc3n2)c1`, the half-life at 1 µM in data set [3] turned out to be 48 min; in data set [4] it was 119 min. The compound also came in with a solubility at 24 h in data set [1] of 141 µM (≈ 37.4 µg/mL). Moreover, the logD at 2 h in data set [2] is 2.8.
In the case of `CCC(C)COc1cccc(OCc2ccc3ccccc3n2)c1` (stereo not drawn), in data set [3], the half-life at 1 µM was determined as 22.3 min. In data set [1], the solubility at 24 h amounted to 3.5 µM (≈ 1.12 µg/mL). In addition, the logD at 2 h in data set [2] turned out to be 1.01.

The values are drawn from ChEMBL document CHEMBL5131401, “Structural Basis for Developing Multitarget Compounds Acting on Cysteinyl Leukotriene Receptor 1 and G-Protein-Coupled Bile Acid Receptor 1” (J Med Chem, 2021).
